Earlier results as cited in paper PMC7953028 (Journal of Pesticide Science, 2021).

Assays:
DmMet/DmTai complex = DmMet/DmTai complex (Drosophila melanogaster, UniProt O44118)
DmMet/DmTai complex, sequence (O44118 1-716): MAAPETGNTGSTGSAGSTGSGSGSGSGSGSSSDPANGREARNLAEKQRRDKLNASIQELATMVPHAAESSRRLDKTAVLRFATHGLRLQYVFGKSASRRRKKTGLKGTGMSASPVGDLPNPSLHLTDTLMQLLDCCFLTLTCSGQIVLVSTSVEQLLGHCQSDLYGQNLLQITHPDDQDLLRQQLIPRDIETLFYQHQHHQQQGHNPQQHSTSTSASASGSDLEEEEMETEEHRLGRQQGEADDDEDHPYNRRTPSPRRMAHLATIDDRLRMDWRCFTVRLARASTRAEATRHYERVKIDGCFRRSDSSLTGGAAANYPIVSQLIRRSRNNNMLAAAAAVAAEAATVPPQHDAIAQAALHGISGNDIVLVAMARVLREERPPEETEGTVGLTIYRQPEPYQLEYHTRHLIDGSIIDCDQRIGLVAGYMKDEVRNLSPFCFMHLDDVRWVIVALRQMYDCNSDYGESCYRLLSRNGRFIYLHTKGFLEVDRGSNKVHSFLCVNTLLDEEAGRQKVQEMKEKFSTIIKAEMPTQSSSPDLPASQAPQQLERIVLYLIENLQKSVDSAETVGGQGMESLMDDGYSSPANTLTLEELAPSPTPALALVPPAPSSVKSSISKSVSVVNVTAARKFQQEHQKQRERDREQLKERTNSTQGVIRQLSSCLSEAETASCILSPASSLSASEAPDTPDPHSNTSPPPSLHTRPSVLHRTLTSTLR
DmMet/DmTai complex, sequence (Q9VLD9 1-2026 partner): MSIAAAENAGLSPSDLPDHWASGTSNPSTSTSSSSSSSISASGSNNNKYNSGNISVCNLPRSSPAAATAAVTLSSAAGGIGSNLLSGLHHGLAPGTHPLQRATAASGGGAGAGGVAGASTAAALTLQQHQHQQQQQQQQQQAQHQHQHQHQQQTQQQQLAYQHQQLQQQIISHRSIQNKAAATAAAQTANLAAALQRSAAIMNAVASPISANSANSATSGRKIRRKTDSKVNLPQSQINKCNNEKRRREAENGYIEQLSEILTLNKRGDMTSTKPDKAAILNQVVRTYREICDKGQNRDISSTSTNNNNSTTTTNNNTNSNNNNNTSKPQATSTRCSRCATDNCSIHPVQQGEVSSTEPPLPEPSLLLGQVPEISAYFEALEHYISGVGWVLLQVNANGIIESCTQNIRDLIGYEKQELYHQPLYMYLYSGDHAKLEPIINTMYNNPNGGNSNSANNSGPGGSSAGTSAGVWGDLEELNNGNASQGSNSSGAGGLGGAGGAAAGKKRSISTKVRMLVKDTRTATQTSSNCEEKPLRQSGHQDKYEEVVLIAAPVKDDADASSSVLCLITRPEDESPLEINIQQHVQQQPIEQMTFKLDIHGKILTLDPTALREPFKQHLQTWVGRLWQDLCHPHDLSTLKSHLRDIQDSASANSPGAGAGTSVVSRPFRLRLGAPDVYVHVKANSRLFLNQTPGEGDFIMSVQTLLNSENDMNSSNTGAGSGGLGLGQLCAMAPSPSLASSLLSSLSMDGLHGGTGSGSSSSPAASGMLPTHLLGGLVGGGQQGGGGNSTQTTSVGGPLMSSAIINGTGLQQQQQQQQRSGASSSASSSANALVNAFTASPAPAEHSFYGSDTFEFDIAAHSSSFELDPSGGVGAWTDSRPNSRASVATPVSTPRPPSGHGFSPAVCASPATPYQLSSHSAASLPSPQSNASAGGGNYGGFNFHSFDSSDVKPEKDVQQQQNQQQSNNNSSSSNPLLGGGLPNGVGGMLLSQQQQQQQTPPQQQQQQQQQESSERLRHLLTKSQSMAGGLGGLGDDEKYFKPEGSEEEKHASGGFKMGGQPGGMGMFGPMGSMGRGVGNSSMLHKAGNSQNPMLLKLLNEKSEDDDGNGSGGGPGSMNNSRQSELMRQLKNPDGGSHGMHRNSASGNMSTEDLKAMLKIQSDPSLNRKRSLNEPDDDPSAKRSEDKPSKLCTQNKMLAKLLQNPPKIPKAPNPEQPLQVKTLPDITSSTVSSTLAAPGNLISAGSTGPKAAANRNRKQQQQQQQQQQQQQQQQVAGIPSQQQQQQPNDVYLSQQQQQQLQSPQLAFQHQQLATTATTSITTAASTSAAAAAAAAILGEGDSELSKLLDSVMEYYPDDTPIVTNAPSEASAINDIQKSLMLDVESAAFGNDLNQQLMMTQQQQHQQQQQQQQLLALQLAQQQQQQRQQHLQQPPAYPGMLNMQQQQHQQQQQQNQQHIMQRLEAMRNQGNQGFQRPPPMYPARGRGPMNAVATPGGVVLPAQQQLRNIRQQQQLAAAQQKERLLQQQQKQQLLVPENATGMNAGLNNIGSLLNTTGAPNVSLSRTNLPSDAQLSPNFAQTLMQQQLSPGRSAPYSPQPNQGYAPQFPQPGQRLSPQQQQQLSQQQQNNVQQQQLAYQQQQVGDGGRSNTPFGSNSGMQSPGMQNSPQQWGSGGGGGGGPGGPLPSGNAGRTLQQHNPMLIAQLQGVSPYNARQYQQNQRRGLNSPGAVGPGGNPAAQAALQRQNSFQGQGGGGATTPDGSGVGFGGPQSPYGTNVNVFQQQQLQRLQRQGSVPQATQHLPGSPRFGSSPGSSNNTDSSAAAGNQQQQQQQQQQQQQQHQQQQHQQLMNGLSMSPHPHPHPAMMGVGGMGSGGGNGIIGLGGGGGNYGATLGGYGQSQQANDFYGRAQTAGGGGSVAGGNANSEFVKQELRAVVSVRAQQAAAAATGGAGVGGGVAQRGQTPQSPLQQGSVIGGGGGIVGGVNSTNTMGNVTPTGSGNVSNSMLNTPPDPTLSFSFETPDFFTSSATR

## C(#Cc1ccccn1)COc1ccc(Oc2ccccc2)cc1 [Compound 2, 2-[3-(4-phenoxyphenoxy)-1-propyn-1-yl)pyridine]
DmMet/DmTai complex
  activity in reporter system relative to natural JHs: outperformed natural JHs

## c1ccc(Oc2ccc(OCCOc3nccs3)cc2)cc1 [Compound 1, 2-[2-(4-phenoxyphenoxy)ethoxy]thiazole]
DmMet/DmTai complex
  activity in reporter system relative to natural JHs: outperformed natural JHs

## COC(C)(C)CCC[C@H](C)C/C=C/C(C)=C/C(=O)OC(C)C (racemic) [methoprene]
other
  log P: 5.00
